We go through two compounds from article PMC10548421, “Anticancer Potential of Diruthenium Complexes with Bridging Hydrocarbyl Ligands from Bioactive Alkynols” (Inorganic Chemistry, 2023).

Series [1] concerns A2780 cells. The series is described as follows: Apoptosis, Annexin V/propidium iodide flow cytometry. The following applies: A2780, 4 μM, 24 h. The format is cell-based, human. The procedure:
(§1) The A2780 ovarian carcinoma cell line was received from Merck (reference 93112519–1VL) and cultured at 37 °C in an environment with 5% CO2. The cultivation was carried out in complete cell culture medium (RPMI-1640 medium, Merck), which was supplemented with 10% fetal bovine serum (FBS, Merck), 1% L-glutamine (Merck) and 1% penicillin–streptomycin–neomycin (PSN, Merck). For the flow cytometry experiments, three independent duplicates were analyzed using a BD FACSVerse flow cytometer (Becton Dickinson, USA). At least 5 × 10^3 events were recorded for each sample. The same procedure was replicated for the experiments described below. Solutions of the complexes were formulated using the stock solutions (Section 5.1).
Apoptosis assay was performed using an Annexin V-FITC/PI commercial kit (V13242, Thermo Fisher Scientific, USA), while caspase 3/7 activation assay was performed with a CellEvent Caspase-3/7 Green Flow Cytometry Assay Kit (C10427, Thermo Fisher Scientific, USA). A2780 cells were seeded in 24-well plates at a density of 5 × 10^4 cells per well; after 24 h, the cells were exposed to 4 μM solution of the selected complex for 24 h. […] The supernatant was collected, cells were washed with PBS (0.1 M, pH 7.4), and trypsin was added (0.25% trypsin-EDTA, GibcoTM). Finally, complete cell culture medium was added to stop the trypsinization, and a final volume of 500 μL was divided into two 250 μL aliquots, following the protocol provided by the manufacturer. Samples were centrifuged, treated with the respective buffers, and then incubated in the dark at room temperature for 10 min (Annexin V-FITC/PI) or at 37 °C for 30 min (CellEventTM Caspase-3/7 Green Detection Reagent).
In general terms: A flow cytometer gives signals particle by particle.

Series [2] has as its system Caco-2 human colorectal adenocarcinoma cell line. Description: MTT in vitro cytotoxicity, Caco-2. The format is cell-based. The conditions noted are these: incubation 24 h, mean ± SD. The procedure: (§2) Additionally, the assessment extended to a normal human fetal fibroblast cell line (MRC-5). Cells were obtained from ATCC collection and cultivated according to the producer’s instructions. Stock solutions of the compounds were prepared in DMF immediately before application, and diluted with H2O to achieve the final concentration of 0.1% v/v DMF.[99] The culture media were enriched with 10% fetal calf serum. Subsequently, the cells were exposed to the tested compounds, vehicle (0.1% v/v DMF) and Triton X-100 (1% v/v), during incubation. The conventional MTT assay was carried out following different incubation periods (Tables 5-6). The absorbance was measured at 570 nm by using a spectrophotometer (Infinite M200, Schoeller Instruments, Prague, Czech Republic). The obtained data are presented as the percentage of cell viability with 100% representing negative control treatment (0.1% v/v DMF) and 0% representing the positive control (Triton X-100). The half-maximal inhibitory concentrations (IC50) were determined from dose–response curves using GraphPad Prism 6 software (GraphPad Software, San Diego, USA).

The test system of series [3] is A2780 cells. The series is described as follows: ROS production assessment (ROS-ID). The format is cell-based, human. The following applies: A2780, 4 μM, 24 h. The procedure: as §1
ROS-ID Total ROS/Superoxide detection kit (from Enzo Life Sciences, US) was employed to quantify ROS and superoxide generation in A2780 cells following the treatment with the tested compounds. Thus, cells were seeded in a 96-well plate (10^4 cells/well) and incubated with 4 μM solution of complexes for 24 h. A 100 μM solution of pyocyanin, which is a known oxidative-stress inducer, was used as a positive control. […] Finally, a microplate reader Infinite M200Pro (Tecan, Switzerland) was used to measure sample fluorescence (green: Ex. 488 nm/Em. 520 nm, and red: Ex. 550 nm/Em. 610 nm) and three independent experiments were done in triplicates.

Series [4] has as its system PC-3 human prostate carcinoma cell line. Description: MTT in vitro cytotoxicity, PC-3. The format is cell-based. The following applies: incubation 24 h, mean ± SD. As for the experimental part: as §2, with “The cytotoxicity assessment was conducted on various human cancer cell lines, including A2780 ovarian carcinoma, A2780R cisplatin-resistant ovarian carcinoma, MCF-7 breast, HOS osteosarcoma, A549 epithelial lung, PANC-1 pancreatic, Caco-2 colorectal, PC-3 prostate adenocarcinoma, and HeLa cervical cell lines. Additionally,” for “Additionally,”

Series [5] has as its system MRC-5 normal human lung fibroblast cell line. Description: MTT in vitro cytotoxicity, MRC-5 (selectivity). The format is cell-based. The conditions noted are these: for IC50: normal cells, MTT, incubation 24 h, mean ± SD. As for the experimental part:
as §2, with “The cytotoxicity assessment was conducted on various human cancer cell lines, including A2780 ovarian carcinoma, A2780R cisplatin-resistant ovarian carcinoma, MCF-7 breast, HOS osteosarcoma, A549 epithelial lung, PANC-1 pancreatic, Caco-2 colorectal, PC-3 prostate adenocarcinoma, and HeLa cervical cell lines. Additionally,” for “Additionally,”

Series [6] concerns A2780 cells. The series is described as follows: Cell cycle analysis (flow cytometry, PI). The series is classed as cell-based, human. The following applies: A2780, 4 μM, 24 h. The procedure:
as §1
These studies were conducted on A2780 cells using the BD Cycletest Plus DNA kit (from Becton Dickinson, USA). Thus, cells were seeded in 96-well plates (10^4 cells/well) and treated with 4 μM complexes 3a and 3b for 24 h. Following the incubation period, cells underwent a series of procedural steps. Initially, they were rinsed using PBS (0.1 M, pH 7.4). […]

Series [7] is described as follows: Stability in DMEM/CH3OH solution (UV–vis). The series is classed as physicochemical. The conditions noted are these: ca. 5:1 v/v. As for the experimental part: […] The percentage of remaining complex in the solution was calculated by considering the change in absorbance at the characteristic wavelength. The identical procedure was employed to evaluate stability in MeOH and DMEM (about 1:5 v/v) solutions. DMEM stands for the cell culture medium (containing 1000 mg/L glucose and L-glutamine, excluding sodium bicarbonate and phenol red; reference D2902-Merck).

Series [8] relates to HeLa human cervical carcinoma cell line. Description: MTT in vitro cytotoxicity, HeLa. The conditions noted are these: incubation 24 h, mean ± SD. The series is classed as cell-based. The procedure: as §2, with “The cytotoxicity assessment was conducted on various human cancer cell lines, including A2780 ovarian carcinoma, A2780R cisplatin-resistant ovarian carcinoma, MCF-7 breast, HOS osteosarcoma, A549 epithelial lung, PANC-1 pancreatic, Caco-2 colorectal, PC-3 prostate adenocarcinoma, and HeLa cervical cell lines. Additionally,” for “Additionally,”

Molecules are shown by their SMILES. Where only a bound is given, the exact number is not on record here.

What is called IC50 is the concentration that inhibits the measured activity by half. The low end stands for higher potency, the high end for lower potency. With `CC12CCC3c4ccc(O)cc4CCC3C1CCC2=C=[CH][Ru]1(=[C]=O)([CH]2C=CC=C2)[C](=O)[Ru+]1(=[C]=O)[CH]1C=CC=C1.F[B-](F)(F)F` (mixture of isomers) [3b, [Ru2Cp2(CO)3{μ–η^1:η^2-CH=C=(estradiolylidene)}]BF4], in the series on A2780 cells [1], the “proapoptotic effect, Annexin V/PI (in words)” value was “much less effective than that of cisplatin”. For the same compound, the IC50 in series [2] was found to be 36 ± 2.7 µM; in series [4] it was 13.4 ± 1.8 µM; in series [5], 25.9 ± 2.9 µM; in series [8] it was 12.5 ± 1.1 µM. In addition, the “intracellular ROS levels (in words)” value in the series on A2780 cells [3] is reported as “no appreciable effect”. For the same compound, the “IC50 on healthy MRC-5 cell line compared to the average IC50 values of the cancer cell lines” value in series [5] (24 h, selectivity) was “approximately 2 fold”. Moreover, the “effect on the cell cycle (in words)” value with A2780 cells [6] is “strong depression of the cell number in the synthetic (S) phase and second gap and mitotic phases (G2/M)”. Further, the “residual complex % in DMEM/CH3OH” value was 88% in series [7] (2 h) and 42% in series [7] (18 h).
As to `F[B-](F)(F)F.O=[C]=[Ru+]1([CH]2C=CC=C2)[C](=O)[Ru]1(=[C]=O)([CH]=C=C1CCCC1)[CH]1C=CC=C1` (stereo not shown) [3a, [Ru2Cp2(CO)3{μ–η^1:η^2-CH=C=(cyclopentylidene)}]BF4], in the series on A2780 cells [1], the “proapoptotic effect, Annexin V/PI (in words)” value is reported as “much less effective than that of cisplatin”. Further, the half-inhibitory concentration (IC50) is above 50 µM in series [2], 22.2 ± 2.4 µM in series [4], 38.3 ± 3.9 µM in series [5] and 17.5 ± 2.9 µM in series [8]. Moreover, in the series with A2780 cells [3], the “intracellular ROS levels (in words)” value is recorded as “noteworthy elevation of intracellular ROS levels”. For the same compound, the “effect on the cell cycle (in words)” value in the series with A2780 cells [6] was “strong depression of the cell number in the synthetic (S) phase and second gap and mitotic phases (G2/M)”. In addition, the “residual complex % in DMEM/CH3OH” value in series [7] (2 h) was 94%; in series [7] (18 h), 12%.
